Test results published in ChEMBL document CHEMBL5505979, “Novel aminothiazoximone-corbelled ethoxycarbonylpyrimidones with antibiofilm activity to conquer Gram-negative bacteria through potential multitargeting effects” (Eur J Med Chem, 2024).
In brackets after ≈: the same amount, converted by molar mass. Several values for one entry are separate records, joined by “and”; a condition that tells them apart may be missing. Identical values can stand only once.

What was measured:
Type in all cases: functional
[1] = system: Candida parapsilosis; test: Anti-fungal activity against Candida parapsilosis assessed as inhibition of fungal growth
[2] = system: Staphylococcus aureus; test: Anti-bacterial activity against Staphylococcus aureus CMCC (B) 26003 assessed as inhibition of bacterial growth
[3] = system: Staphylococcus aureus; test: Anti-bacterial activity against Staphylococcus aureus ATCC 25923 assessed as inhibition of bacterial growth
[4] = system: Staphylococcus aureus; test: Anti-bacterial activity against methicillin-resistant Staphylococcus aureus N315 assessed as inhibition of bacterial growth
[5] = system: Candida albicans; test: Anti-fungal activity against Candida albicans 90023 assessed as inhibition of fungal growth
[6] = system: Klebsiella pneumoniae; test: Anti-bacterial activity against Klebsiella pneumoniae KPN325 assessed as inhibition of bacterial growth
[7] = system: Staphylococcus aureus; test: Anti-bacterial activity against Staphylococcus aureus ATCC 12600 assessed as inhibition of bacterial growth
[8] = system: Pseudomonas aeruginosa; test: Anti-bacterial activity against Pseudomonas aeruginosa ATCC 15442 assessed as inhibition of bacterial growth
[9] = system: Staphylococcus aureus; test: Anti-bacterial activity against Staphylococcus aureus CMCC (B) 26001 assessed as inhibition of bacterial growth
[10] = system: Candida albicans; test: Anti-fungal activity against Candida albicans assessed as inhibition of fungal growth
[11] = system: Pseudomonas aeruginosa; test: Anti-bacterial activity against Pseudomonas aeruginosa ATCC 27853 assessed as inhibition of bacterial growth
[12] = system: Escherichia coli; test: Anti-bacterial activity against Escherichia coli ATCC 25922 assessed as inhibition of bacterial growth
[13] = system: Pseudomonas aeruginosa; test: Anti-bacterial activity against Pseudomonas aeruginosa ST235 assessed as inhibition of bacterial growth
[14] = system: Staphylococcus aureus; test: Anti-bacterial activity against Staphylococcus aureus ATCC 1708 assessed as inhibition of bacterial growth
[15] = system: Enterococcus faecalis; test: Anti-bacterial activity against Enterococcus faecalis V583 assessed as inhibition of bacterial growth
[16] = system: Escherichia coli; test: Anti-bacterial activity against Escherichia coli JM109 assessed as inhibition of bacterial growth
[17] = system: Staphylococcus aureus; test: Anti-bacterial activity against methicillin-resistant Staphylococcus aureus ATCC 43300 assessed as inhibition of bacterial growth
[18] = system: Candida tropicalis; test: Anti-fungal activity against Candida tropicalis assessed as inhibition of fungal growth
[19] = system: Staphylococcus aureus; test: Anti-bacterial activity against Staphylococcus aureus ATCC 6538 assessed as inhibition of bacterial growth
[20] = system: Acinetobacter baumannii; test: Anti-bacterial activity against Acinetobacter baumannii R674 assessed as inhibition of bacterial growth
[21] = system: Pseudomonas aeruginosa; test: Anti-bacterial activity against Pseudomonas aeruginosa CMCC (B) 10104 assessed as inhibition of bacterial growth
[22] = system: Staphylococcus aureus; test: Anti-bacterial activity against Staphylococcus aureus ATCC 29213 assessed as inhibition of bacterial growth
[23] = system: Pseudomonas aeruginosa; test: Anti-bacterial activity against Pseudomonas aeruginosa ATCC 9027 assessed as inhibition of bacterial growth
[24] = Lodderomyces parapsilosis, read-out: MIC
[25] = Staphylococcus aureus, ATCC 25923, read-out: MIC
[26] = Staphylococcus aureus, N315, read-out: MIC
[27] = Klebsiella pneumoniae, KPN325, read-out: MIC
[28] = Staphylococcus aureus, ATCC 12600, read-out: MIC
[29] = Pseudomonas aeruginosa, ATCC 15442, read-out: MIC
[30] = Candida albicans, read-out: MIC
[31] = Pseudomonas aeruginosa, ATCC 27853, read-out: MIC
[32] = Pseudomonas aeruginosa, ST235, read-out: MIC
[33] = Staphylococcus aureus, ATCC 1708, read-out: MIC
[34] = Staphylococcus aureus, ATCC 43300, read-out: MIC
[35] = Candida tropicalis, read-out: MIC
[36] = Pseudomonas aeruginosa, CMCC (B) 10104, read-out: MIC
[37] = Staphylococcus aureus, ATCC 29213, read-out: MIC

Compound | MIC [1, 24] [µM] | MIC [2] [µM] | MIC [3, 25] [µM] | MIC [5] [µM] | MIC [6, 27] [µM] | MIC [7, 28] [µM] | MIC [8, 29] [µM] | MIC [9] [µM] | MIC [10, 30] [µM] | MIC [11, 31] [µM] | MIC [12] [µM] | MIC [13, 32] [µM] | MIC [14, 33] [µM] | MIC [15] [µM] | MIC [16] [µM] | MIC [18, 35] [µM] | MIC [19] [µM] | MIC [20] [µM] | MIC [21, 36] [µM] | MIC [22, 37] [µM] | further results
CCOC(=O)C1=C(CN2CCN(C(=O)/C(=N/OC)c3csc(N)n3)CC2)NC(=O)NC1c1ccc(OC)c(OC)c1OC (stereo unspecified) | 398 (≈ 246 µg/mL) | 208 (≈ 128 µg/mL) | 208 (≈ 128 µg/mL) | 398 (≈ 246 µg/mL) | 26 (≈ 16.1 µg/mL) | 415 (≈ 256 µg/mL) | 104 (≈ 64.2 µg/mL) | 415 (≈ 256 µg/mL) | 398 (≈ 246 µg/mL) | 52 (≈ 32.1 µg/mL) | 52 (≈ 32.1 µg/mL) | 52 (≈ 32.1 µg/mL) | 208 (≈ 128 µg/mL) | 208 (≈ 128 µg/mL) | 104 (≈ 64.2 µg/mL) | 398 (≈ 246 µg/mL) | 104 (≈ 64.2 µg/mL) | 104 (≈ 64.2 µg/mL) | 104 (≈ 64.2 µg/mL) | 208 (≈ 128 µg/mL) | MIC [4, 26]: 415 µM (≈ 256 µg/mL); MIC [17, 34]: 208 µM (≈ 128 µg/mL); MIC [23]: 104 µM (≈ 64.2 µg/mL)
CCOC(=O)C1=C(CN2CCN(C(=O)/C(=N/OC)c3csc(N)n3)CC2)NC(=O)NC1c1ccc(F)cc1 (stereo unspecified) | 447 (≈ 244 µg/mL) | 235 (≈ 128 µg/mL) | 59 (≈ 32.2 µg/mL) | 6 (≈ 3.27 µg/mL) | 117 (≈ 63.8 µg/mL) | 59 (≈ 32.2 µg/mL) | 59 (≈ 32.2 µg/mL) | 59 (≈ 32.2 µg/mL) | 447 (≈ 244 µg/mL) | 117 (≈ 63.8 µg/mL) | 59 (≈ 32.2 µg/mL) | 117 (≈ 63.8 µg/mL) | 117 (≈ 63.8 µg/mL) | 29 (≈ 15.8 µg/mL) | 117 (≈ 63.8 µg/mL) | 447 (≈ 244 µg/mL) | 117 (≈ 63.8 µg/mL) | 59 (≈ 32.2 µg/mL) | 117 (≈ 63.8 µg/mL) | 59 (≈ 32.2 µg/mL) | MIC [4, 26]: 117 µM (≈ 63.8 µg/mL); MIC [17, 34]: 59 µM (≈ 32.2 µg/mL); MIC [23]: 117 µM (≈ 63.8 µg/mL)
CCOC(=O)C1=C(CN2CCN(C(=O)/C(=N/OC)c3csc(N)n3)CC2)NC(=O)NC1c1ccc(C#N)cc1 (stereo unspecified) | 460 (≈ 254 µg/mL) |  | 58 (≈ 32.1 µg/mL) | 115 (≈ 63.6 µg/mL) | 116 (≈ 64.1 µg/mL) | 58 (≈ 32.1 µg/mL) | 58 (≈ 32.1 µg/mL) | 232 (≈ 128 µg/mL) | 460 (≈ 254 µg/mL) | 58 (≈ 32.1 µg/mL) | 29 (≈ 16 µg/mL) | 58 (≈ 32.1 µg/mL) | 58 (≈ 32.1 µg/mL) | 29 (≈ 16 µg/mL) | 29 (≈ 16 µg/mL) | 460 (≈ 254 µg/mL) | 58 (≈ 32.1 µg/mL) | 29 (≈ 16 µg/mL) | 58 (≈ 32.1 µg/mL) | 58 (≈ 32.1 µg/mL) | MIC [23]: 58 µM (≈ 32.1 µg/mL)
CCCCc1nc(Cl)c(C2NC(=O)NC(CN3CCN(CC(=O)c4nccs4)CC3)=C2C(=O)OCC)[nH]1 (stereo unspecified) | 466 (≈ 256 µg/mL) | 117 (≈ 64.4 µg/mL) | 29 (≈ 16 µg/mL) | 29 (≈ 16 µg/mL) | 117 (≈ 64.4 µg/mL) | 58 (≈ 31.9 µg/mL) | 58 (≈ 31.9 µg/mL) | 15 (≈ 8.25 µg/mL) | 466 (≈ 256 µg/mL) | 58 (≈ 31.9 µg/mL) | 58 (≈ 31.9 µg/mL) | 58 (≈ 31.9 µg/mL) | 117 (≈ 64.4 µg/mL) | 117 (≈ 64.4 µg/mL) | 58 (≈ 31.9 µg/mL) | 466 (≈ 256 µg/mL) | 29 (≈ 16 µg/mL) | 58 (≈ 31.9 µg/mL) | 58 (≈ 31.9 µg/mL) | 58 (≈ 31.9 µg/mL) | MIC [4, 26]: 117 µM (≈ 64.4 µg/mL); MIC [17, 34]: 58 µM (≈ 31.9 µg/mL); MIC [23]: 58 µM (≈ 31.9 µg/mL)
CCOC(=O)C1=C(CN2CCN(C(=O)/C(=N/OC)c3csc(N)n3)CC2)NC(=O)NC1c1ccc(F)cc1F (stereo unspecified) | 464 (≈ 262 µg/mL) | 114 (≈ 64.2 µg/mL) | 28 (≈ 15.8 µg/mL) | 15 (≈ 8.45 µg/mL) | 114 (≈ 64.2 µg/mL) | 57 (≈ 32.1 µg/mL) | 28 (≈ 15.8 µg/mL) | 57 (≈ 32.1 µg/mL) | 464 (≈ 262 µg/mL) | 57 (≈ 32.1 µg/mL) | 57 (≈ 32.1 µg/mL) | 57 (≈ 32.1 µg/mL) | 57 (≈ 32.1 µg/mL) | 28 (≈ 15.8 µg/mL) | 114 (≈ 64.2 µg/mL) | 464 (≈ 262 µg/mL) | 57 (≈ 32.1 µg/mL) | 57 (≈ 32.1 µg/mL) | 114 (≈ 64.2 µg/mL) | 57 (≈ 32.1 µg/mL) | MIC [4, 26]: 114 µM (≈ 64.2 µg/mL); MIC [17, 34]: 28 µM (≈ 15.8 µg/mL); MIC [23]: 114 µM (≈ 64.2 µg/mL)
CCCCc1nc(Cl)c(C2NC(=O)NC(CN3CCN(CC(O)c4nccs4)CC3)=C2C(=O)OCC)[nH]1 (stereo unspecified) | 455 (≈ 251 µg/mL) | 199 (≈ 110 µg/mL) | 50 (≈ 27.6 µg/mL) |  | 199 (≈ 110 µg/mL) | 50 (≈ 27.6 µg/mL) |  |  | 455 (≈ 251 µg/mL) |  |  | 199 (≈ 110 µg/mL) |  |  |  |  | 99 (≈ 54.7 µg/mL) |  | 199 (≈ 110 µg/mL) | 50 (≈ 27.6 µg/mL) | MIC [1]: 466 µM (≈ 257 µg/mL); MIC [3]: 58 µM (≈ 32 µg/mL); MIC [4]: 199 µM and 466 µM; MIC [6]: 233 µM (≈ 129 µg/mL); MIC [7]: 58 µM (≈ 32 µg/mL); MIC [8]: 50 µM and 116 µM; MIC [10]: 466 µM (≈ 257 µg/mL); MIC [11]: 50 µM and 116 µM; MIC [13]: 116 µM (≈ 64 µg/mL); MIC [14]: 99 µM and 233 µM; MIC [17]: 50 µM and 116 µM; MIC [18]: 227 µM and 466 µM; MIC [21]: 116 µM (≈ 64 µg/mL); MIC [22]: 58 µM (≈ 32 µg/mL)
